Results taken from ChEMBL document CHEMBL1649570, “Pharmacokinetics and ex vivo pharmacodynamic antimalarial activity of dihydroartemisinin-piperaquine in patients with uncomplicated falciparum malaria in Vietnam” (Antimicrob Agents Chemother, 2009).
≈ marks a conversion by molar mass, not a printed value. Calls of active or inactive are those of the source. No cut-off for these calls is given here.

Legend:
[1] = Cmax in Plasmodium falciparum-infected patient at 320 mg/kg, po; assay type: ADME, organism-based; set-up: dose 320 mg/kg, route oral; details: human, in vivo
[2] = Tmax in Plasmodium falciparum-infected patient at 320 mg/kg, po; assay type: ADME, organism-based; set-up: dose 320 mg/kg, route oral; details: human, in vivo
[3] = AUC in Plasmodium falciparum-infected patient at 320 mg/kg, po; assay type: ADME, organism-based; set-up: dose 320 mg/kg, route oral; details: human, plasma
[4] = AUC (0 to infinity) in Plasmodium falciparum-infected patient at 320 mg/kg, po; assay type: ADME, organism-based; set-up: time infinity, dose 320 mg/kg, route oral; details: human, plasma
[5] = Half life in Plasmodium falciparum-infected patient at 320 mg/kg, po; assay type: ADME, organism-based; set-up: dose 320 mg/kg, route oral; details: human, in vivo
[6] = test system: Plasmodium falciparum; test: Antiplasmodial activity against Plasmodium falciparum D6; assay type: functional
[7] = test system: Plasmodium falciparum; test: Antiplasmodial activity against Plasmodium falciparum K1 isolated from po dosed patient with malaria after 7 days; assay type: functional, organism-based
[8] = test system: Plasmodium falciparum; test: Antiplasmodial activity against Plasmodium falciparum K1; assay type: functional
[9] = test system: Plasmodium falciparum; test: Antiplasmodial activity against Plasmodium falciparum K1 assessed as inhibition of [3H]hypoxanthine incorporation by beta counting; assay type: functional, organism-based
[10] = test system: Plasmodium falciparum; test: Antiplasmodial activity against Plasmodium falciparum D6 isolated from po dosed patient with malaria after 7 days; assay type: functional, organism-based
[11] = test system: Plasmodium falciparum; test: Antiplasmodial activity against Plasmodium falciparum D6 isolated from patient with malaria at 25 ng/ml after 28 days; assay type: functional, organism-based
[12] = test system: Plasmodium falciparum; test: Antiplasmodial activity against Plasmodium falciparum K1 isolated from patient with malaria at 25 ng/ml after 28 days; assay type: functional, organism-based
[13] = Plasma concentration in Plasmodium falciparum-infected patient at 320 mg/kg, po after 28 days; assay type: ADME, organism-based; set-up: dose 320 mg/kg, route oral; details: human
[14] = Cmax in Plasmodium falciparum-infected patient at 40 mg/kg, po; assay type: ADME, organism-based; set-up: dose 40 mg/kg, route oral; details: human, in vivo
[15] = Tmax in Plasmodium falciparum-infected patient at 40 mg/kg, po; assay type: ADME, organism-based; set-up: dose 40 mg/kg, route oral; details: human, in vivo
[16] = AUC in Plasmodium falciparum-infected patient at 40 mg/kg, po; assay type: ADME, organism-based; set-up: dose 40 mg/kg, route oral; details: human, plasma
[17] = test system: Homo sapiens; test: AUC (0 to infinity) in Plasmodium falciparum-infected patient at 40 mg/kg, po; assay type: ADME, organism-based, Plasma; set-up: time infinity, dose 40 mg/kg, route oral; details: in vivo
[18] = Half life in Plasmodium falciparum-infected patient at 40 mg/kg, po; assay type: ADME, organism-based; set-up: dose 40 mg/kg, route oral; details: human, in vivo
[19] = test system: Homo sapiens; test: Apparent oral clearance in Plasmodium falciparum-infected patient at 40 mg/kg, po; assay type: ADME, organism-based; set-up: dose 40 mg/kg, route oral; details: in vivo
[20] = test system: Plasmodium falciparum; test: Antiplasmodial activity against Plasmodium falciparum D6 isolated from po dosed patient with malaria; assay type: functional
[21] = test system: Plasmodium falciparum; test: Antiplasmodial activity against Plasmodium falciparum K1 isolated from po dosed patient with malaria; assay type: functional

Clc1ccc2c(N3CCN(CCCN4CCN(c5ccnc6cc(Cl)ccc56)CC4)CC3)ccnc2c1 [PIPERAQUINE]
Cmax [1]: 568 ng/mL
Tmax [2]: 5.7 h
AUC [3]: 44400 ng·h/mL
AUC(0-inf) [4]: 56400 ng·h/mL
half-life [5]: 17.8 days
IC90 [6]: 67.5 nM
Cp [7]: 25 ng/mL
IC90 [8]: 122 nM
IC50 [9]: 82.1 nM
Cp [10]: 25 ng/mL
Activity [11]: inactive
Activity [12]: inactive
concentration at 672 h [13]: 25 ng/mL

C[C@H]1[C@@H](O)O[C@@H]2O[C@@]3(C)CC[C@H]4[C@H](C)CC[C@@H]1[C@@]24OO3 [ARTENIMOL]
Cmax [14]: 698 ng/mL
Tmax [15]: 2.8 h
AUC [16]: 1950 ng·h/mL
AUC [17]: 1949 ng·h/mL
half-life [18]: 51 min
CL/F [19]: 1.19 L/h/kg
IC90 [6]: 4.5 nM
IC90 [8]: 4.85 nM
IC50 [9]: 2.57 nM
ID90 [20]: 639 ng/mL (≈ 2.25 µM)
ID90 [21]: 513 ng/mL (≈ 1.8 µM)
